Assay results as given in publication PMC8421406, “C9orf72-derived arginine-rich poly-dipeptides impede phase modifiers” (Nature Communications, 2021).
Where no end group is shown, it is not given here. HA = HA epitope tag

Test system: GFP:FUS-LC:NLS / mCh:FUS-LC hydrogel
Assay: Hydrogel binding assay, GFP:FUS-LC:NLS on mCh:FUS-LC hydrogel
Format: biochemical
Conditions: Kapβ2 0.1-1.0 µM; PR20 with 1.0 µM Kapβ2
Description: The experiment was independently repeated three times with similar results. Here, 10 μm scale bars are shown in the image. e Graphical description of hydrogel binding assay. Hydrogels of mCh:LC-domain accumulate GFP:LC-domain as it co-polymerizes. f Hydrogel binding assay for FUS-LC in the absence and presence of Kapβ2. mCh:FUS-LC (lower images) were incubated with 1.0 µM of GFP (left panel) or 1.0 µM of GFP:FUS-LC:NLS (right panel) in the presence of different concentrations of Kapβ2 (left to right: 0.1, 0.3, and 1.0 µM). g Quantitative analysis of Fig. 1f. Relative intensity of GFP signals is shown as the mean of three independent experiments ± SD, analyzed by one-way ANOVA followed by Dunnett’s multiple comparison test (**P < 0.01, ***P < 0.001). h Hydrogel binding assay for FUS-LC in the absence and presence of Kapβ2 and/or PR20. Hydrogel droplets of mCh:FUS-LC (lower images) were incubated with 1.0 µM of GFP (left panel) or GFP:FUS-LC:NLS (right panel). GFP:FUS-LC:NLS containing Kapβ2 (1.0 µM) was challenged for homotypic polymer extension in the absence or presence of different concentration of PR20. i Quantitative analysis of Fig. 1h. Relative intensity of GFP signals is shown as the mean of three independent experiments ± SD, analyzed by one-way ANOVA followed by Dunnett’s multiple comparison test (**P < 0.01). Source data are provided as a Source Data file. […]

Substance: PR20: twenty repeats of proline:arginine with an HA epitope tag at the C terminus, synthesized by SCRUM, Inc. (PRPRPRPRPRPRPRPRPRPRPRPRPRPRPRPRPRPRPRPR-{HA})
- Effect on hydrogel binding of GFP:FUS-LC:NLS: inhibited the ability of Kapβ2 from blocking the hydrogel binding of GFP:FUS-LC:NLS
